# Data taken from patent US20220288081A1, “TREATMENT OF EXCITOTOXICITY-RELATED CONDITIONS” (priority 2019, published 2022).
# Tests used:
# Assay type in all cases: in vivo
# C57Bl/6 mice = experiment: Pentylenetetrazole (PTZ)-induced excitotoxic seizure model; conditions: for mean seizure severity (score 0 to 5): n=9
# Description: (§1) FIG. 3. LIMK1 inhibition reduced susceptibility to induced seizures and mitigated neuronal network hypersynchronisity in mice. (A) Excitotoxic seizures were induced by acute intraperitoneal injection of 50 mg/kg body weight pentylenetetrazole (PTZ) followed by timing and scoring (0=no seizures to 7=terminal status epilepticus) of seizure development. Mice were treated with vehicle or 10 mg/kg body weight LIMK1 inhibitor LIMKi intraperitoneally 30 minutes prior to seizure induction. […] (B) Compound hippocampal electroencephalography (EEG) recordings over 4 hours in non-transgenic (wt) and APP transgenic (APP23) mice including 2 hours before (Pre) and 2 hours after (Post) LIMKi or vehicle administration. Time of intraperitoneal LIMKi and vehicle administration is indicated with an arrow. […] Frequent spikes pre and post vehicle administration in APP23 mice. In contrast, LIMKi injection mitigates spike activity in APP23 post injection. […] From left to right: non-Tg+vehicle; non-Tg+LIMKi; APP23+vehicle; APP23+LIMKi.
# Seizure model. Excitotoxic seizure were induced in mice by intraperitoneal injection of 50 mg/kg body weight pentylenetetrazole followed by observation in a square area (40×40 cm). Scoring of seizures was done as previously described (Ittner et al., 2010, Cell 142, 387-397). For LIMKi-treated mice, scoring was adjusted by combining the severe seizure scores 5 to 7 into a single score of 5. For both scales, minor to moderate seizures are reflected by scores <5.
# (§2) Next, the inventors tested the effects of acute Compound 1 administration on neuronal network activity in APP23 mice. […] Furthermore, CFC 1 hour after Compound 1 administration was re-established (data not shown). […] Thus, inhibition of LIMK1 with Compound 1 conferred protection from Aβ toxicity in neurons and from excitotoxicity in vivo. Furthermore, treatment of APP23 with Compound 1 corrected network aberrations including CFC.
# APP23 mice = experiment: Telemetric hippocampal EEG recordings (spike analysis, cross frequency coupling) in APP23 mice; conditions: for amplitude phase in EEG recordings / modulation index of cross frequency coupling: vs wt controls; for spike frequency / hypersynchronous discharges in EEG: intraperitoneal, 2 hours pre vs 2 hours post administration, and vs vehicle
# Description: as §1
# Mice. APP23 express human Swedish mutant (K595N/M596L) amyloid-β precursor protein (APP) in neurons (Sturchler-Pierrat et al., 1997, Proc Natl Acad Sci USA 94, 13287-13292). Limk1^−/− mice have been reported previously (Meng et al., 2002, Neuron 35, 121-133). All mice were on a pure C57Bl/6 background. Mice were housed in standard individually ventilated cages on a 12 hour light/dark cycle with access to standard chow and water ad libitum. Mice of both genders were used unless otherwise indicated. Investigators were blinded to genotypes until after completion of data analysis. All experiments were approved by the Animal Ethics Committee of Macquarie University.
# Electroencephalography. Hippocampal EEG recordings were done with implanted telemetric electrodes (D.S.I.) as previously described (Ittner et al., 2014, Acta neuropathologica communications 2, 149). All recordings were done with mice individually housed in their home cages one week after implantation of transmitters. Compound administration was done intraperitoneally during transient restraining of mice. Vehicle for the LIMK1 inhibitor LIMKi contained hydroxypropyl methylcellulose 606 (HPMC 606) with polyvinylpyrrolidone k17 (PVP k17) and tween 80 in a proportion of 0.5%, 0.5%, 0.1%, respectively. Spike analysis was done with the Neuroscore software module (D.S.I.) as previously described (Ittner et al., 2016, Science 354, 904-908). Cross frequency coupling of theta and gamma waves was performed as previously described (Ittner et al., 2016, Science 354, 904-908).
# as §2
# non-transgenic (wt) mice = experiment: Telemetric hippocampal EEG recordings in non-transgenic (wt) mice; conditions: pre and post intraperitoneal injection
# Description: as §1
# Electroencephalography. Hippocampal EEG recordings were done with implanted telemetric electrodes (D.S.I.) as previously described (Ittner et al., 2014, Acta neuropathologica communications 2, 149). All recordings were done with mice individually housed in their home cages one week after implantation of transmitters. […]
# [1] = 10 mg/kg intraperitoneally 30 minutes prior to 50 mg/kg PTZ i.p., vs vehicle controls
# [2] = 1 hour after administration, n=8
# [3] = 1 hour after administration, n=8, listed as LIMKi
compound,measurement,setting,value
Cc1c[nH]c2ncnc(N3CCN(/C(=N\C#N)Nc4cccc(Br)c4)[C@@H](C)C3)c12 [Compound 1],latency to develop severe seizures,"C57Bl/6 mice; 10 mg/kg 30 minutes prior to PTZ, C57Bl/6 mice",increased the latency to develop severe seizures
same,development of severe seizure stages over time (score=5),C57Bl/6 mice; [1],Only vehicle-treated mice develop severe seizure stages over time
same,latency to develop lower grade seizures (score <5),C57Bl/6 mice; [1],Delayed latency to develop lower grade seizures
same,mean seizure severity (score 0 to 5),C57Bl/6 mice; [1],significantly reduced mean seizure severity
same,mean seizure severity (score 0 to 5),"C57Bl/6 mice; 10 mg/kg intraperitoneally 30 minutes prior to 50 mg/kg PTZ i.p., vs vehicle controls, listed as LIMKi",Significantly reduced seizure severity
same,cross frequency coupling (CFC),"APP23 mice; 1 hour after administration, data not shown",re-established
same,amplitude phase in EEG recordings,APP23 mice; [2],normalized
same,modulation index of cross frequency coupling,APP23 mice; [2],normalized
same,amplitude phase in EEG recordings,APP23 mice; [3],corrected 1 hour after LIMKi delivery and no longer different from wt controls
same,modulation index of cross frequency coupling,APP23 mice; [3],corrected 1 hours after LIMKi administration and no longer different from wt controls
same,spike frequency / hypersynchronous discharges in EEG,APP23 mice; n=8,hypersynchronicity significantly decreased
same,spike frequency / hypersynchronous discharges in EEG,"APP23 mice; n=8, listed as LIMKi",significantly reduced spike frequency
same,spike activity in EEG,non-transgenic (wt) mice,No overt spike activity
